Results from patent US20130217664A1, “NOVEL COMPOUNDS USEFUL FOR THE TREATMENT OF DEGENERATIVE AND INFLAMMATORY DISEASES” (priority 2012, published 2013).

Key:
Format in all cases: biochemical
human JAK3 = target: T1, human JAK3 (Homo sapiens, UniProt P52333); assay: JAK3 inhibition assay; conditions: recombinant human JAK3 catalytic domain; polyGT substrate
T1 construct: catalytic domain (amino acids 781-1124; catalog number PV3855); purchased Invitrogen PV3855
Procedure: 1.3 JAK3 Inhibition Assay
0.5 ng JAK3 protein was incubated with 2.5 μg polyGT substrate (Sigma catalog number P0275) in kinase reaction buffer (25 mM Tris pH 7.5, 0.5 mM EGTA, 10 mM MgCl2, 2.5 mM DTT, 0.5 mM Na3VO4, 5 mM b-glycerolphosphate, 0.01% Triton X-100, 1 μM non-radioactive ATP, 0.25 μCi 33P-gamma-ATP (GE Healthcare, catalog number AH9968) final concentrations) with or without 5 μL containing test compound or vehicle (DMSO, 1% final concentration), in a total volume of 25 μL, in a polypropylene 96-well plate (Greiner, V-bottom). After 45 min at 30° C., reactions were stopped by adding 25 μL/well of 150 mM phosphoric acid. […] Plates were washed 6 times with 300 μL per well of a 75 mM phosphoric acid solution and the bottom of the plates was sealed. 40 μL/well of Microscint-20 was added, the top of the plates was sealed and readout was performed using the Topcount (Perkin Elmer). Kinase activity was calculated by subtracting counts per min (cpm) obtained in the presence of a positive control inhibitor (10 μM staurosporine) from cpm obtained in the presence of vehicle. The ability of a test compound to inhibit this activity was determined as:
(§1) Percentage inhibition=((cpm determined for sample with test compound present−cpm determined for sample with positive control inhibitor)divided by(cpm determined in the presence of vehicle−cpm determined for sample with positive control inhibitor))*100.
Dose dilution series were prepared for the compounds enabling the testing of dose-response effects in the JAK3 assay and the calculation of the IC50 for each compound. Each compound was routinely tested at concentration of 20 μM followed by a 1/5 serial dilution, 10 points in a final concentration of 1% DMSO.

human JAK2 = target: T2, human JAK2 (Homo sapiens, UniProt O60674); assay: JAK2 inhibition assay (polyGT substrate / Ulight-JAK1 peptide); conditions: recombinant human JAK2 catalytic domain; polyGT or Ulight-JAK1 peptide assay
T2 construct: catalytic domain (amino acids 808-1132; catalog number PV4210); GST; purchased Invitrogen PV4210
T2 sequence (O60674 808-1132): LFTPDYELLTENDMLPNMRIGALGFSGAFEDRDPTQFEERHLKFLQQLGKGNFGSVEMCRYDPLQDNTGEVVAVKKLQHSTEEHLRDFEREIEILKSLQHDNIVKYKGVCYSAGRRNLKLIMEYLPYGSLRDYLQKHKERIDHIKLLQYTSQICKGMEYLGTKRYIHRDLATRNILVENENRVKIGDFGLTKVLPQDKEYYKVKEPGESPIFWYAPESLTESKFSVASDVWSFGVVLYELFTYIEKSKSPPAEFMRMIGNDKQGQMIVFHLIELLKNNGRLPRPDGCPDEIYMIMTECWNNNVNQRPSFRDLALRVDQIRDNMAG
In short: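 Radiometric: 0.025 mU JAK2 with 2.5 μg polyGT, 1 μM ATP plus ^33P-ATP in MOPS pH 7.5 buffer, 1% DMSO, 90 min at 30° C.; filter counting. Alternative TR-FRET format with Ulight-JAK1 peptide, 60 min at room temperature, Eu-anti-phosphotyrosine detection.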

human JAK1 = target: T3, human JAK1 (Homo sapiens, UniProt P23458); assay: JAK1 inhibition assay (polyGT substrate / Ulight-JAK1 peptide); conditions: recombinant human JAK1 catalytic domain; polyGT or Ulight-JAK1 peptide assay
T3 construct: catalytic domain, amino acids 866-1154; catalog number PV4774; purchased Invitrogen PV4774
T3 sequence (P23458 866-1154): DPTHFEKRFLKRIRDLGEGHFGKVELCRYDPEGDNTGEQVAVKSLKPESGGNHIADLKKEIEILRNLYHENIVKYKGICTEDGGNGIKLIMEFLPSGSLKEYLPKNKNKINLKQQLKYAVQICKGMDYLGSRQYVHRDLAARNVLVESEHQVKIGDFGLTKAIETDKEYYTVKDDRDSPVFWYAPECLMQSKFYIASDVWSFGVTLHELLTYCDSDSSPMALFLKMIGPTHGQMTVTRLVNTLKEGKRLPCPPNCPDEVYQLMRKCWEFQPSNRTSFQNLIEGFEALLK
In short: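 Two formats. PolyGT radiometric: 45 min at 30 °C, stopped with phosphoric acid, counted as cpm. Ulight-JAK1 peptide: 60 min at room temperature, stopped with Eu-anti-phosphotyrosine/EDTA, read as RFU. Percent inhibition normalised to vehicle and 10 μM staurosporine.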

human TYK2 = target: T4, human TYK2 (Homo sapiens, UniProt P29597); assay: TYK2 inhibition assay; conditions: recombinant human TYK2 catalytic domain, polyGT substrate
T4 construct: catalytic domain (amino acids 871-1187; catalog number 08-147); purchased Carna Biosciences 08-147
T4 sequence (P29597 871-1187): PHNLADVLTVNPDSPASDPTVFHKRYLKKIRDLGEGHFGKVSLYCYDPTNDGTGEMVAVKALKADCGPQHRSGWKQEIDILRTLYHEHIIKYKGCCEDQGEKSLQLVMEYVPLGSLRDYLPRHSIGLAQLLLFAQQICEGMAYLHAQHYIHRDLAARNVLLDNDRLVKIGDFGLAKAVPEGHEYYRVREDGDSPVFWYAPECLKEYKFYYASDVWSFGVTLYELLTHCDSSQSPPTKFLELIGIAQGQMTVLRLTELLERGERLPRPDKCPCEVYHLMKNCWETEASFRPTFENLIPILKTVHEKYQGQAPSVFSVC
Procedure: 1.4 TYK2 Inhibition Assay
After 90 min at 30° C., reactions were stopped by adding 25 μL/well of 150 mM phosphoric acid. […] Plates were washed 6 times with 300 μL per well of a 75 mM phosphoric acid solution and the bottom of the plates was sealed. 40 μL/well of Microscint-20 was added, the top of the plates was sealed and readout was performed using the Topcount (Perkin Elmer). Kinase activity was calculated by subtracting counts per min (cpm) obtained in the presence of a positive control inhibitor (10 μM staurosporine) from cpm obtained in the presence of vehicle. The ability of a test compound to inhibit this activity was determined as:
as §1
Dose dilution series were prepared for the compounds enabling the testing of dose-response effects in the TYK2 assay and the calculation of the IC50 for each compound.

T1 sequence (P52333 781-1124): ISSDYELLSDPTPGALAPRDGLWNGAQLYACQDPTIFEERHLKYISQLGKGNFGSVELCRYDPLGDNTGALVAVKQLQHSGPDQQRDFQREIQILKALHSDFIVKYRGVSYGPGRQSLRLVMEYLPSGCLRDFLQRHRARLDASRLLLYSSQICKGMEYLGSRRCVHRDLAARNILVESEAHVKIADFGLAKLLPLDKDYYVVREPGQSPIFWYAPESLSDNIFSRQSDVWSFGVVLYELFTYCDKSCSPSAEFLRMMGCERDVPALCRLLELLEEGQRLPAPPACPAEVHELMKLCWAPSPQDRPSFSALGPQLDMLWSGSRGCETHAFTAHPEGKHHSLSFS

SMILES | IC50 (human JAK3) [nM] | IC50 (human JAK2) [nM] | IC50 (human JAK1) [nM] | IC50 (human TYK2) [nM]
CCc1ccccc1N(Cc1ccccn1)c1cc2c(cn1)ncn2C [Compound 461, N-(2-ethylphenyl)-1-methyl-N-(pyridin-2-ylmethyl)-1H-imidazo[4,5-c]pyridin-6-amine] | > 1000 | > 1000 | > 1000 | > 1000
CCc1ccccc1N(Cc1cccnc1)c1cc2c(cn1)ncn2C [Compound 462, N-(2-ethylphenyl)-1-methyl-N-(pyridin-3-ylmethyl)-1H-imidazo[4,5-c]pyridin-6-amine] | > 1000 | > 1000 | 501 to 1000 | > 1000
CN(c1cc2c(cn1)ncn2C)c1ccc(C2CN(CC(N)=O)C2)cc1OC(F)F [Compound 374, 2-(3-{3-Difluoromethoxy-4-[methyl-(1-methyl-1H-imidazo[4,5-c]pyridin-6-yl)-amino]-phenyl}-azetidin-1-yl)-acetamide] | > 1000 | 101 to 500 | 101 to 500 | > 1000
CCc1cc(C2CN(C(=O)CC#N)C2)ncc1N(C)c1cc2c(cn1)ncn2C [Compound 335, 3-(3-{4-Ethyl-5-[methyl-(1-methyl-1H-imidazo[4,5-c]pyridin-6-yl)-amino]-pyridin-2-yl}-azetidin-1-yl)-3-oxo-propionitrile] | > 1000 | 501 to 1000 | 0.01 to 100 | > 1000
CN(c1cc2c(cn1)ncn2C)c1ccccc1Cl [Compound 68, N-(2-Chlorophenyl)-N,1-dimethyl-1H-imidazo[4,5-c]pyridin-6-amine] | > 1000 | > 1000 | 101 to 500 | 501 to 1000
CN(c1cc2c(cn1)ncn2C)c1ccc(C2CN(C(=O)N3CCC3)C2)cc1OC(F)F [Compound 366, Azetidin-1-yl-(3-{3-difluoromethoxy-4-[methyl-(1-methyl-1H-imidazo[4,5-c]pyridin-6-yl)-amino]-phenyl}-azetidin-1-yl)-methanone] | > 1000 | > 1000 | 501 to 1000 | > 1000
CCc1cc(C2(C#N)CN(S(C)(=O)=O)C2)ncc1N(C)c1cc2c(cn1)ncn2C [Compound 458, 3-{4-Ethyl-5-[methyl-(1-methyl-1H-imidazo[4,5-c]pyridin-6-yl)-amino]-pyridin-2-yl}-1-methanesulfonyl-azetidine-3-carbonitrile] | 501 to 1000 | 101 to 500 | 0.01 to 100 | 501 to 1000
Cc1ccc(OCc2ccc(C#N)nc2)cc1N(C)c1cc2c(cn1)ncn2C [Compound 92, 5-((4-methyl-3-(methyl(1-methyl-1H-imidazo[4,5-c]pyridin-6-yl)amino)phenoxy)methyl) picolinonitrile] | > 1000 | > 1000 | 0.01 to 100 | > 1000
CCc1cn(C2(CC#N)CNC2)nc1N(C)c1cc2c(cn1)ncn2C [Compound 309, (3-{4-Ethyl-3-[methyl-(1-methyl-1H-imidazo[4,5-c]pyridin-6-yl)-amino]-pyrazol-1-yl}-azetidin-3-yl)-acetonitrile] | > 1000 | > 1000 | > 1000 | > 1000
Cc1ccc(N(C)c2cc3c(cn2)ncn3C)c(OC(F)F)c1 [Compound 427, (2-Difluoromethoxy-4-methyl-phenyl)-methyl-(1-methyl-1H-imidazo[4,5-c]pyridin-6-yl)-amine] | > 1000 | 0.01 to 100 | 0.01 to 100 | > 1000
CCc1ncncc1N(C)c1cc2c(cn1)ncn2C [Compound 456, (4-Ethyl-pyrimidin-5-yl)-methyl-(1-methyl-1H-imidazo[4,5-c]pyridin-6-yl)-amine] | > 1000 | > 1000 | > 1000 | > 1000

The remaining lines, values ahead:

IC50 (human JAK3) [nM] | IC50 (human JAK2) [nM] | IC50 (human JAK1) [nM] | IC50 (human TYK2) [nM] | SMILES
> 1000 | > 1000 | > 1000 | > 1000 | CCc1cn(C2(CC#N)CN(S(C)(=O)=O)C2)nc1N(C)c1cc2c(cn1)ncn2C [Compound 310, (3-{4-Ethyl-3-[methyl-(1-methyl-1H-imidazo[4,5-c]pyridin-6-yl)-mino]-pyrazol-1-yl}-1-methanesulfonyl-azetidin-3-yl)-acetonitrile]
> 1000 | > 1000 | 101 to 500 | > 1000 | CN(c1cc2c(cn1)ncn2C)c1ccc(C#N)cc1OC(F)F [Compound 428, 3-Difluoromethoxy-4-[methyl-(1-methyl-1H-imidazo[4,5-c]pyridin-6-yl)-amino]-benzonitrile]
> 1000 | > 1000 | 101 to 500 | > 1000 | CN(c1ccc(OC(F)(F)F)cc1)c1cc2c(cn1)ncn2C [Compound 1, N,1-dimethyl-N-(4-(trifluoromethoxy)phenyl)-1H-imidazo[4,5-c]pyridin-6-amine]
101 to 500 | 0.01 to 100 | 0.01 to 100 | 0.01 to 100 | CCc1cc(N2CC[C@H](C)C2)ncc1N(C)c1cc2c(cn1)ncn2C [Compound 417, [4-Ethyl-6-((S)-3-methyl-pyrrolidin-1-yl)-pyridin-3-yl]-methyl-(1-methyl-1H-imidazo[4,5-c]pyridin-6-yl)-amine]
> 1000 | > 1000 | 101 to 500 | > 1000 | COc1ccc(N(C)c2cc3c(cn2)ncn3C)cc1 [Compound 2, N-(4-methoxyphenyl)-N,1-dimethyl-1H-imidazo[4,5-c]pyridin-6-amine]
> 1000 | > 1000 | > 1000 | > 1000 | CN(c1cc2c(cn1)ncn2C)c1cc(C2CC2)nn1C [Compound 306, (5-Cyclopropyl-2-methyl-2H-pyrazol-3-yl)-methyl-(1-methyl-1H-imidazo[4,5-c]pyridin-6-yl)-amine]
> 1000 | > 1000 | 101 to 500 | > 1000 | CCc1cc(C2CN(C(=O)C3CC(F)(F)C3)C2)ncc1N(C)c1cc2c(cn1)ncn2C [Compound 340]
> 1000 | > 1000 | 101 to 500 | > 1000 | CCc1ccccc1N(CCN1CCOCC1)c1cc2c(cn1)ncn2C [Compound 460, N-(2-ethylphenyl)-1-methyl-N-(2-morpholinoethyl)-1H-imidazo[4,5-c]pyridin-6-amine]
> 1000 | > 1000 | 101 to 500 | > 1000 | Cc1cc(OCc2ccc(C#N)nc2)ccc1N(C)c1cc2c(cn1)ncn2C [Compound 89, 5-((3-methyl-4-(methyl(1-methyl-1H-imidazo[4,5-c]pyridin-6-yl)amino)phenoxy)methyl) picolinonitrile]
> 1000 | 101 to 500 | 101 to 500 | > 1000 | COCN(Cc1ccc(N(C)c2cc3c(cn2)ncn3C)c(F)c1)S(C)(=O)=O [Compound 359, N-{3-Fluoro-4-[methyl-(1-methyl-1H-imidazo[4,5-c]pyridin-6-yl)-amino]-benzyl}-N-methoxymethyl-methanesulfonamide]
